# According to ChEMBL document CHEMBL3112428, “Biological evaluation of diazene derivatives as anti-tubercular compounds” (Eur J Med Chem, 2014):
# Activity calls are given as the source filed them. The rule behind the calls is not given here.
# Legend:
# [1] = tested on: Mycobacterium tuberculosis; assay: Antituberculosis activity against Mycobacterium tuberculosis H37Rv ATCC 27294 assessed as inhibition of bacterial replication after 6 days by luminometry analysis; assay type: functional, organism-based; conditions: H37Rv ATCC 27294, 144 h
# [2] = Genotoxicity in mouse J774A1 cells assessed as ratio of genomic DNA present in tail and head at 0.1 to 10 ug/ml after 24 hrs by comet assay; assay type: toxicity, cell-based; conditions: j774.a1, 24 h
# Mycobacterium ulcerans = assay: Antituberculosis activity against Mycobacterium ulcerans 1615 expressing lux gene assessed as inhibition of bacterial replication after 6 days by luminometry analysis; assay type: functional; conditions: Mycobacterium ulcerans, 1615, 144 h
# [3] = tested on: Mycobacterium avium subsp. paratuberculosis; assay: Antituberculosis activity against Mycobacterium avium ssp. paratuberculosis ATCC 19698 expressing lux gene assessed as inhibition of bacterial replication after 6 days by luminometry analysis; assay type: functional, organism-based; conditions: ATCC 19698, 144 h
# [4] = Antituberculosis activity against Mycobacterium avium ssp. avium ATCC 15769 expressing lux gene assessed as inhibition of bacterial replication after 6 days by luminometry analysis; assay type: functional, Mycobacterium avium subsp. avium
# [5] = tested on: Mycobacterium tuberculosis; assay: Antituberculosis activity against Mycobacterium tuberculosis H37Rv expressing lux gene assessed as inhibition of bacterial replication after 6 days by luminometry analysis; assay type: functional, organism-based; conditions: 144 h
# [6] = tested on: Mycobacterium tuberculosis; assay: Antituberculosis activity against Mycobacterium tuberculosis H37Rv ATCC 27294 assessed as inhibition of bacterial replication at < 10 ug/ml after 6 days by luminometry analysis relative to control; assay type: functional
# [7] = Selectivity index, ratio of IC50 for mouse J774A1 cells to IC50 for Mycobacterium tuberculosis H37Rv expressing pSMT1; assay type: toxicity, cell-based, J774.A1; conditions: read-out: Ratio IC50
# [8] = Cytotoxicity against mouse J774A1 cells after 24 hrs by neutral red uptake assay; assay type: cell-based; conditions: J774.A1, 24 h
# [9] = tested on: Mycobacterium tuberculosis; assay: Antituberculosis activity against Mycobacterium tuberculosis H37Rv expressing lux gene infected in mouse J774A1 cells assessed as inhibition of bacterial replication at 12.5 ug/ml after 4 days by luminometry analysis; assay type: functional; conditions: J774.A1, 96 h
# [10] = tested on: Mycobacterium tuberculosis; assay: Antituberculosis activity against Mycobacterium tuberculosis H37Rv expressing lux gene infected in mouse J774A1 cells assessed as inhibition of bacterial replication at 3.13 ug/ml after 4 days by luminometry analysis; assay type: functional; conditions: J774.A1, 96 h
# [11] = tested on: Mycobacterium tuberculosis; assay: Antituberculosis activity against Mycobacterium tuberculosis H37Rv expressing lux gene infected in mouse J774A1 cells assessed as inhibition of bacterial replication at 1.56 ug/ml after 4 days by luminometry analysis; assay type: functional; conditions: J774.A1, 96 h
# [12] = tested on: Mycobacterium tuberculosis; assay: Antituberculosis activity against Mycobacterium tuberculosis H37Rv expressing lux gene infected in mouse J774A1 cells assessed as inhibition of bacterial replication at 0.78 to 6.25 ug/ml after 4 days by luminometry analysis; assay type: functional, organism-based; conditions: J774.A1
SMILES,IC50 [1],IC90 [1],IC99 [1],further results
O=C(/N=N/c1nccc(C(F)(F)F)n1)Nc1ccccc1,> 50 µg/mL,> 50 µg/mL,> 50 µg/mL,–
COC(=O)/N=N/C(=O)Nc1ccc(OC)cc1,14.3 µg/mL,32.4 µg/mL,> 50 µg/mL,–
CCOC(=O)/N=N/C(=O)Nc1ccc(C)cc1,2.72 µg/mL,4.07 µg/mL,7.97 µg/mL,Activity [2]: Non-toxic; IC50 (Mycobacterium ulcerans): 7.25 µg/mL; IC50 [3]: 4.89 µg/mL; IC50 [4]: 3.14 µg/mL; IC50 [5]: 2.72 µg/mL; fold change (FC) [6]: 10; selectivity ratio [7]: 7.63; IC50 [8]: 20.8 µg/mL; inhibition at 12.5 µg/mL [9]: 40.3%
O=C(/N=N/c1ccc(Cl)cc1)Nc1ccccc1,15.6 µg/mL,41.4 µg/mL,49.3 µg/mL,–
CCOC(=O)/N=N/C(=O)Nc1ccccc1,17.2 µg/mL,33.8 µg/mL,> 50 µg/mL,–
O=C(/N=N/c1ccc(C(F)(F)F)cc1)Nc1ccccc1,0.24 µg/mL,5.29 µg/mL,6.24 µg/mL,inhibition at 3.13 µg/mL [10]: 74.4%; inhibition at 1.56 µg/mL [11]: 31.7%; Activity [2]: Non-toxic; IC50 (Mycobacterium ulcerans): 3.78 µg/mL; IC50 [3]: 0.98 µg/mL; IC50 [4]: 1.03 µg/mL; IC50 [5]: 0.24 µg/mL; fold change (FC) [6]: 10; selectivity ratio [7]: 30.2; IC50 [8]: 7.41 µg/mL
O=C(/N=N/C(=O)Nc1ccc(F)cc1)NCc1ccncc1,> 50 µg/mL,> 50 µg/mL,> 50 µg/mL,–
O=C(/N=N/C(=O)Nc1ccc(F)cc1F)NCc1cccnc1,38.6 µg/mL,> 50 µg/mL,> 50 µg/mL,–
O=C(/N=N/c1ccc(F)cc1)Nc1ccccc1,45.2 µg/mL,49.2 µg/mL,> 50 µg/mL,–
O=C(/N=N/c1ccccn1)Nc1ccccc1,27.1 µg/mL,46.9 µg/mL,> 50 µg/mL,–
O=C(/N=N/c1ccc([N+](=O)[O-])cc1)Nc1ccccc1,2.75 µg/mL,6.23 µg/mL,16.5 µg/mL,inhibition [12]: inactive; Activity [2]: Non-toxic; IC50 (Mycobacterium ulcerans): 5.67 µg/mL; IC50 [3]: 3.56 µg/mL; IC50 [4]: 2.98 µg/mL; IC50 [5]: 2.75 µg/mL; fold change (FC) [6]: 10; selectivity ratio [7]: 5.23; IC50 [8]: 14.4 µg/mL
O=C(/N=N/C(=O)Nc1ccc(F)cc1F)NCc1ccncc1,33.3 µg/mL,> 50 µg/mL,> 50 µg/mL,–
O=C(/N=N/c1c(F)c(F)c(F)c(F)c1F)Nc1ccccc1,24.3 µg/mL,45.3 µg/mL,> 50 µg/mL,–
NNC(=O)c1ccncc1 [ISONIAZID],0.04 µg/mL,0.11 µg/mL,0.13 µg/mL,–
COc1ccc(/N=N/C(=O)Nc2ccccc2)cc1,12.1 µg/mL,38.4 µg/mL,42.2 µg/mL,–
O=C(/N=N/C(=O)Nc1ccc(F)cc1)NCc1cccnc1,> 50 µg/mL,> 50 µg/mL,> 50 µg/mL,–
